Legend:
Test in all cases: relative viability (nuclei count vs DMSO), 5 days (fraction); higher = more cells survive
[1] = compound: N[C@@H]1CCCN(c2c(/C=C3\SC(=O)NC3=O)cccc2-c2ccccc2)C1 [AZD1208] + Nc1nc2[nH]cc(CCc3ccc(C(=O)N[C@@H](CCC(=O)O)C(=O)O)cc3)c2c(=O)[nH]1 [Pemetrexed] (partner 0.2 µM)
Outline: (§1)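 Relative viability was taken as the ratio of nuclei in treated wells to nuclei in vehicle wells. Lung cancer cell lines in 1536-well plates received compounds by pin tool one day after seeding, either one drug alone or a fixed anchor-drug dose plus five library-drug doses (not always all listed) in √10 steps. Nuclei were counted on 4× images after 5 days of treatment, and values are medians of duplicate plates.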

[2] = compound: N[C@@H]1CCCN(c2c(/C=C3\SC(=O)NC3=O)cccc2-c2ccccc2)C1 [AZD1208] + N=C(N)NC(=N)NCCc1ccccc1 [Phenformin] (partner 250 µM)
Outline: as §1

[3] = compound: CN1CCN(CC1)C2=CC(=C(C=C2)NC3=NC(=C(S3)C(=O)C4=C(C=CC=C4Cl)Cl)N)OC [XMD14-99] + COc1cccc2cc(-c3nc([C@H]4CC[C@H](C(=O)O)CC4)n4ncnc(N)c34)[nH]c12 [OSI-027] (partner 0.5 µM)
Outline: as §1

[4] = compound: CN1CCN(CC1)C2=CC(=C(C=C2)NC3=NC(=C(S3)C(=O)C4=C(C=CC=C4Cl)Cl)N)OC [XMD14-99] + C[C@@H](Oc1cc(-c2cnn(C3CCNCC3)c2)cnc1N)c1c(Cl)ccc(F)c1Cl [Crizotinib] (partner 1 µM)
Outline: as §1

UMC-11
relative viability ([1]; first compound 0.08 µM): 0.689 | relative viability ([1]; first compound 0.253 µM): 0.718 | relative viability ([1]; first compound 0.8 µM): 0.631 | relative viability ([1]; first compound 2.53 µM): 0.594 | relative viability ([1]; first compound 8 µM): 0.48 | relative viability ([2]; first compound 0.08 µM): 0.312 | relative viability ([2]; first compound 0.253 µM): 0.355 | relative viability ([2]; first compound 0.8 µM): 0.339 | relative viability ([2]; first compound 2.53 µM): 0.388 | relative viability ([2]; first compound 8 µM): 0.306 | relative viability ([3]; first compound 0.08 µM): 0.495 | relative viability ([3]; first compound 0.8 µM): 0.46 | relative viability ([3]; first compound 2.53 µM): 0.421 | relative viability ([3]; first compound 8 µM): 0.359 | relative viability ([4]; first compound 0.08 µM): 0.619 | relative viability ([4]; first compound 0.8 µM): 0.582 | relative viability ([4]; first compound 2.53 µM): 0.721 | relative viability ([4]; first compound 8 µM): 0.577

Source: the supplement of paper PMC10307832
